Assay [1] addresses T1, Unmet expectations (Unmet; CG11596) (Drosophila melanogaster, UniProt Q9I7X6).
T1 construct: FLAG-tagged, tag kept; pRK5 vector, expressed in suspension HEK-293T cells
T1 sequence (Q9I7X6 1-456): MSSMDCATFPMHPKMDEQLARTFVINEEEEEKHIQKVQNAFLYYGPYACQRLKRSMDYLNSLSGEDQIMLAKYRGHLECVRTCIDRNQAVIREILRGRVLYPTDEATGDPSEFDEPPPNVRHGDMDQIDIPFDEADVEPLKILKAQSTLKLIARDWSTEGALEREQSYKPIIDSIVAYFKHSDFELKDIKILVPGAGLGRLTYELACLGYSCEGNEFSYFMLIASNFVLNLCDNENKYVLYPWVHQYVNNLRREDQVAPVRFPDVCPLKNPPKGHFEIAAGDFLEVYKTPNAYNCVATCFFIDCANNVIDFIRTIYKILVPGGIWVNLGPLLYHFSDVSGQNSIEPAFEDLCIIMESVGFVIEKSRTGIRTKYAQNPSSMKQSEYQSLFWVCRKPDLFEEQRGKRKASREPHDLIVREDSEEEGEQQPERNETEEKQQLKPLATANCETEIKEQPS
In words: competition with [3H]SAM binding to purified protein on anti-FLAG beads. To be noted: 5 μM [3H]SAM, pH 7.4, on ice.

In assay [2] the target is T2, Unmet expectations (Unmet; CG11596) (Drosophila melanogaster, UniProt Q9I7X6, E30A).
T2 construct: FLAG-tagged, tag kept; pRK5 vector, expressed in suspension HEK-293T cells
T2 sequence (Q9I7X6 1-456 E30A): T1 sequence (Q9I7X6 1-456) with E30A
In words: [3H]SAM binding to purified protein on anti-FLAG beads. The note with it: 5 μM [3H]SAM with or without unlabeled SAM, pH 7.4, on ice; labelled compound.

Residue numbers refer to the chain shown, from its start.

For `Nc1ncnc2c1ncn2[C@@H]1O[C@H](C[C@@H](N)CC[C@H](N)C(=O)O)[C@@H](O)[C@H]1O` [sinefungin], the “competition with [3H]SAM binding to purified protein on anti-FLAG beads” value in assay [1] is “also competes with labeled SAM for binding to Unmet”.

Regarding `Nc1ncnc2c1ncn2[C@@H]1O[C@H](CSCC[C@H](N)C(=O)O)[C@@H](O)[C@H]1O` [SAH], in assay [1], the “competition with [3H]SAM binding to purified protein on anti-FLAG beads” value is given as “it readily competes with labeled SAM for binding to Unmet”.

With `C[S+](CC[C@H](N)C(=O)O)C[C@H]1O[C@@H](n2cnc3c(N)ncnc32)[C@H](O)[C@@H]1O` (stereo partly drawn) [SAM], the SAM-binding capacity result in assay [2] is “The E30A mutant of Unmet does not interact with dGATOR2 but maintains its SAM-binding capacity”.
